# Reference: ChEMBL document CHEMBL5046246, “Dimeric Tetracenomycin Derivatives from a Taklamakan Desert-Derived Streptomyces sp. HDN154193” (2022)
# What was measured:
# Format in all cases: functional
# Staphylococcus = assay: Antibacterial activity against methicillin-resistant coagulase-negative Staphylococcus assessed as reduction in bacterial growth by double dilution method
# Staphylococcus aureus = assay: Antibacterial activity against methicillin-resistant Staphylococcus aureus assessed as reduction in bacterial growth by double dilution method
# Mycolicibacterium phlei = assay: Antibacterial activity against Mycobacterium phlei assessed as reduction in bacterial growth by double dilution method
# Proteus sp. = assay: Antibacterial activity against Proteus species assessed as reduction in bacterial growth by double dilution method; conditions: Proteus sp. (in: enterobacteria)
# Bacillus subtilis = assay: Antibacterial activity against Bacillus subtilis assessed as reduction in bacterial growth by double dilution method
Structure (SMILES),MIC (Staphylococcus) [µg/mL],MIC (Staphylococcus aureus) [µg/mL],MIC (Mycolicibacterium phlei) [µg/mL],MIC (Proteus sp.) [µg/mL],MIC (Bacillus subtilis) [µg/mL]
Cc1cc(O)cc2cc3c(c(O)c12)C(=O)c1c(O)cc(O)cc1[C@H]3[C@H]1c2cc(O)cc(O)c2C(=O)c2c1cc1cc(O)cc(C)c1c2O,1.9,1.9,1.9,3.9,3.9
Cc1cc(O)cc2cc3c(c(O)c12)C(=O)c1c(O)cc(O)cc1[C@@H]3[C@H]1c2cc(O)cc(O)c2C(=O)c2c1cc1cc(O)cc(C)c1c2O,1.9,1.9,1.9,3.9,3.9
Cc1cc(O)cc2cc3c(c(O)c12)C(=O)c1c(O)cc(O)cc1[C@H]3[C@@H]1c2cc(O)cc(O)c2C(=O)c2c1cc1cc(O)cc(C)c1c2O,1.9,1.9,1.9,1.9,1.9
Cc1cc(O)cc2cc3c(c(O)c12)C(=O)c1c(O)cc(O)cc1C3C1c2cc(O)cc(O)c2C(=O)c2c1cc1cc(O)cc(C)c1c2O (racemic),1.9,1,1,1.9,3.9
O=C(O)c1cn(C2CC2)c2cc(N3CCNCC3)c(F)cc2c1=O [CIPROFLOXACIN],32.1,128,0.1,< 0.1,< 0.1
Cc1cc(O)cc2cc3c(c(O)c12)C(=O)c1c(O)cc(O)cc1C3=O [TETRACENOMYCIN D],7.7,16,7.7,16,16
